“And” between values parts separate entries of the source, which are not always exact repeats. Equal entries are not always repeated. Where two headings read alike, the source gives them in different places.
How the values were obtained:
[1] = for change in formation clearance (CLf) during pregnancy compared to postpartum: T2 or T3 vs matched postpartum; for CLR (renal clearance) / CL renal: geometric mean [range]; for CL renal: female, human, urine and plasma, oral, CLR (renal clearance)
[2] = Steady-state plasma concentrations of BUP and metabolites in pregnancy; conditions: for Css (dose-normalized steady-state plasma concentration) / metabolite/BUP steady-state concentration ratio: geometric mean [range]; for steady-state concentration relative to BUP: pregnant women and postpartum
[3] = cited from earlier work
[4] = type: in vivo, human; conditions: at delivery, three subjects; for fetal to maternal ratio (umbilical cord venous plasma to maternal plasma concentration): steady-state; for maternal plasma steady-state concentration / umbilical cord venous plasma steady-state concentration: mean±SE
[5] = postpartum (PP) matched to T2, n=5
[6] = postpartum (PP) matched to T3, n=5

| Structure (SMILES) | change in formation clearance (CLf) during pregnancy compared to postpartum [1] | Css (dose-normalized steady-state plasma concentration) [2, 5] | metabolite/BUP steady-state concentration ratio [2, 5] | Css (dose-normalized steady-state plasma concentration) [2, 6] | metabolite/BUP steady-state concentration ratio [2, 6] | Css (dose-normalized steady-state plasma concentration) ([2]; second trimester (T2), n=5) | metabolite/BUP steady-state concentration ratio ([2]; second trimester (T2), n=5) | Css (dose-normalized steady-state plasma concentration) ([2]; third trimester (T3), n=5) | metabolite/BUP steady-state concentration ratio ([2]; third trimester (T3), n=5) | maternal plasma steady-state concentration [4] [µM/g] | umbilical cord venous plasma steady-state concentration [4] [µM/g] | CLR (renal clearance) [1, 5] | CLR (renal clearance) [1, 6] | CLR (renal clearance) ([1]; second trimester (T2), n=5) | CLR (renal clearance) ([1]; third trimester (T3), n=5) | steady-state concentration relative to BUP ([2]; this study) | plasma concentration exceeding BUP concentration [3] | further results |
| --- | --- | --- | --- | --- | --- | --- | --- | --- | --- | --- | --- | --- | --- | --- | --- | --- | --- | --- |
| CC(NC(C)(C)C)C(=O)c1ccc(O)c(Cl)c1 (stereo not drawn) [4’OH-BUP, 4’-hydroxy-bupropion] | no changes | – | – | – | – | – | – | – | – | – | – | – | – | – | – | – | – | – |
| C[C@H]1NC(C)(C)CO[C@]1(O)c1cccc(Cl)c1 [R,R-OH-BUP] | – | 15.9 [5.5–35.7] μM/g | 32.5 [15.8–77.2] | 14.0 [5.5–35.7] μM/g | 35.6 [15.2–77.2] | 15.8 [10.0–22.2] μM/g | 43.8 [16.4–178.7] | 13.7 [5.9–21.2] μM/g | 33.7 [13.5–99.1] | 19.1 ± 12.0 | 6.4 ± 3.1 | 0.08 [0.02–0.45] L/h | 0.09 [0.03–0.35] L/h | 0.15 [0.07–0.32] L/h | 0.07 [0.05–0.09] L/h | – | – | R,R-OH-BUP steady-state concentration relative to S,S-OH-BUP ([2]; this study): 14–20 fold; R,R-OH-BUP exposure relative to S,S-OH-BUP [3]: up to 65 fold; R,R-OH-BUP concentration relative to S,S-OH-BUP ([3]; non-pregnant subjects): 40–65 fold; fetal to maternal ratio (umbilical cord venous plasma to maternal plasma concentration) [4]: 0.4±0.1 |
| C[C@H]1NC(C)(C)CO[C@]1(O)c1cccc(Cl)c1 [OH-BUP, hydroxybupropion] | no changes | 16.3 [4.9–39.6] μM/g | – | 13.3 [4.9–39.6] μM/g | – | 15.1 [10.6–18.7] μM/g | – | 16.5 [6.3–30.9] μM/g | – | – | – | 0.10 [0.02–0.54] L/h | 0.10 [0.03–0.46] L/h | 0.20 [0.11–0.36] L/h | 0.08 [0.04–0.12] L/h | 28–33 fold and 30 fold | 3–30 fold | steady-state concentration relative to racemic BUP ([3]; non-pregnant subjects): 28 fold |
| CC(NC(C)(C)C)C(=O)c1cccc(Cl)c1 (stereo not drawn) [BUP, Bupropion, reference compound] | – | 0.53 [0.11–1.3] μM/g | – | 0.41 [0.11–1.1] μM/g | – | 0.33 [0.08–1.2] μM/g | – | 0.44 [0.19–1.2] μM/g | – | 0.5 ± 0.2 | 0.2 ± 0.1 | – | – | – | – | – | – | CL renal ([1]; second trimester (T2), n=5): 40 mL/min; CL renal ([1]; third trimester (T3), n=5): 30 mL/min |
| C[C@@H](NC(C)(C)C)C(=O)c1cccc(Cl)c1 [R-BUP, R-bupropion, reference compound] | – | – | – | – | – | – | – | – | – | – | – | – | – | – | – | – | – | circulating concentration of R-BUP relative to S-BUP [3]: 3- to 6 fold |
| C[C@H](NC(C)(C)C)[C@@H](O)c1cccc(Cl)c1 [Threo, threohydrobupropion] | no changes | 4.1 [1.2–10.8] μM/g | 7.8 [3.5–17.6] | 4.7 [1.2–10.8] μM/g | 11.5 [9.7–17.6] | 3.4 [1.8–6.7] μM/g | 10.3 [4.8–23.1] | 4.9 [3.1–10.7] μM/g | 11.2 [5.6–16.6] | 4.9 ± 5.3 | 3.7 ± 4.3 | 2.4 [0.55–17.6] L/h | 2.9 [0.59–17.6] L/h | 3.9 [1.7–8.6] L/h | 2.0 [1.1–2.8] L/h | 8–10 fold and 10 fold | 3–30 fold | steady-state concentration relative to racemic BUP ([3]; non-pregnant subjects): 5 fold; fetal to maternal ratio (umbilical cord venous plasma to maternal plasma concentration) [4]: 0.7±0.1 |
| C[C@@H]1NC(C)(C)CO[C@@]1(O)c1cccc(Cl)c1 [S,S-OH-BUP] | – | 0.78 [0.10–2.2] μM/g | 1.5 [0.7–5.9] | 0.64 [0.10–2.2] μM/g | 1.6 [0.8–5.9] | 0.73 [0.20–1.4] μM/g | 2.2 [1.0–6.0] | 0.83 [0.36–1.7] μM/g | 1.9 [0.9–8.7] | 0.8 ± 0.6 | 0.4 ± 0.2 | 0.35 [0.09–3.5] L/h | 0.47 [0.09–3.5] L/h | 0.93 [0.31–3.4] L/h | 0.40 [0.24–0.72] L/h | – | – | – |
| CC(NC(C)(C)C)C(O)c1cccc(Cl)c1 (stereo not drawn) [Erythro, erythrohydrobupropion] | no changes | 0.67 [0.25–1.7] μM/g | 1.3 [0.5–3.2] | 0.80 [0.25–1.7] μM/g | 1.9 [1.2–3.2] | 0.49 [0.33–0.78] μM/g | 1.5 [0.4–4.2] | 0.63 [0.52–0.79] μM/g | 1.4 [0.6–2.7] | 0.5 ± 0.5 | 0.3 ± 0.3 | 1.6 [0.36–9.7] L/h | 1.9 [0.36–9.7] L/h | 2.1 [0.91–4.4] L/h | 1.2 [0.74–1.7] L/h | similar | 3–30 fold | – |

— publication PMC8426418 (Therapeutic drug monitoring, 2021)
